Assay results reported in patent publication US5932709A (University of Michigan, priority 1997, dated 1999).
In brackets after ≈: the same amount, converted by molar mass. Entries after “also recorded” stand apart in the source; their conditions may differ.

How the values were obtained:
[1] = test system: MCF-7 human breast tumor cells; test: MTT growth inhibition, MCF-7; assay type: cell-based; conditions: MCF7, 144 h, MCF-7, MTT, 6 days, read-out: Growth Inhibitory Activity IC50
Experimental: (§1) Camptothecin was used as a control to test the anti-cancer efficacy of the novel camptothecin analogs of the present invention.
(§2) Murine B16 melanoma cell line was grown in RPMI 1640 medium supplemented with 10% heat-inactivated fetal bovine serum, 2 mM L-glutamine, 50 units/mL penicillin, 50 μg/mL streptomycin, 25 μg/mL gentamicin, 0.75% sodium bicarbonate 10 mM HEPES buffer (pH 7.4), and 0.06 mg/mL AntiPPLO. Murine P388 leukemic cell line and human HT-29 colon adenocarcinoma line were maintained in RPMI 1640 medium supplemented with 10% heat-inactivated fetal bovine serum. […] MCF-7M human breast adenocarcinoma was maintained in IMEM supplemented with 5% non heat-inactivated fetal bovine serum and 1 nM insulin.
(§3) [See "Rapid Colorimetric Assay For Cellular Growth And Survival: Application To Proliferation And Cytotoxicity Assays," J. Immun. Meth. 65:55 (1983)]. The assay utilizes a tetrazolium salt to quantitatively measure mammalian cell survival and proliferation by colorimetric methods. In particular, MTT, a pale yellow compound with minimal absorbance, is incubated with cancerous cells in addition to (or in the absence of) a particular camptothecin analog. Living cells with active mitochondrial enzymes metabolize the MTT into a dark blue/purple formazan product with high absorbance. The exact procedure used to test the camptothecin analogs of the present invention is described below.
(§4) Exponentially growing cells (1-2×10^3 cells, unless specified otherwise) in 0.1 mL medium were seeded on day 0 in a 96-well microtiter plate. On day 1, 0.1 mL aliquots of medium containing graded concentrations of test analogs were added to the cell plates. After incubation at 37° C. in a humidified incubator for 3 days (P388, P388/CPT, B16) or 6 days (HT-29, MCF-7M), the plates were centrifuged briefly and 100 μL of the growth medium was removed. Cell cultures were incubated with 50 μL of 3-(4,5-dimethylthiazol-2-yl)-2,5-diphenyl-tetrazolium bromide [MTT, 1 mg/mL in Dulbecco's phosphate buffered saline (PBS)] for 4 hr at 37° C. The resulting purple formazan precipitate was solubilized with 200 μL of 0.04 N HCl in isopropyl alcohol. Absorbance was monitored in a BioRad Model 3550 Microplate Reader at a test wavelength of 570 nm and a reference wavelength of 630 nm. The absorbance is transferred to a PC 486 computer. The IC50 values were determined by a computer program (EZ-ED50) that fits all of the data to the following four-parameter logistic equation:
(§5) Y=(Amax -Amin)/(1+[X/IC^50 ])^n +Amin
(§6) where Amax is the absorbance of control cells, Amin is the absorbance of cells in the presence of highest agent concentration, IC^50 is the concentration of agent that inhibits the cell growth by 50% of control cells (based on the absorbance) and n is the slope of the curve.

[2] = test system: B16 murine melanoma cells; test: MTT growth inhibition, B16; assay type: cell-based; conditions: Mus musculus, 72 h, 3 days, read-out: Growth Inhibitory Activity IC50
Experimental: as §1, §2, §3, §4, §5, §6

[3] = test system: P388 murine leukemia cells; test: MTT growth inhibition, P388; assay type: cell-based; conditions: Mus musculus, 72 h, 3 days, read-out: Growth Inhibitory Activity IC50
Experimental: as §1, §2, §3, §4, §5, §6

[4] = test system: P388/CPT CPT-resistant murine leukemia cells; test: MTT growth inhibition, P388/CPT; assay type: cell-based; conditions: Mus musculus, 72 h, 3 days, read-out: Growth Inhibitory Activity IC50
Experimental: as §1, §2, §3, §4, §5, §6

[5] = test system: murine B16 melanoma; test: Murine B16 melanoma model in vivo; set-up: species or system mouse (B6D2F1); conditions: for Survivors: 60-day
Experimental: 1) Murine B16 Melanoma Model
(§7) For the B16 melanoma model, the following procedure was used. B6D2F1 mice receive i.p. inocula of B16 murine melanoma brei prepared from B16 tumors growing s.c. in mice (day 0). […] If dosing information for agents is not available, the maximum tolerated dose (MTD) is determined in initial dose finding experiments in non-tumored mice.
(§8) The mean survival times of all groups are calculated, and results are expressed as mean survival of treated mice/mean survival of control mice (T/C)×100%. A T/C value of 150 means that the mice in the treated group lived 50% longer than those of the control group; this is sometimes referred to as the increase in life span or ILS value.
Mice that survive for 60 days are considered long-term survivors, or cures, in the B16 model. The universally accepted cut-off for activity in this model, which has been for years by the National Cancer Institute, is T/C=125. Conventional use of B16 over the years has set the following levels of activity: T/C<125, no activity, T/C=125-150, weak activity; T/C=150-200, modest activity; T/C=200-300, high activity; T/C>300, with long term survivors; excellent, curative activity.

[6] = test system: murine P388 leukemia; test: Murine P388 leukemia model in vivo; set-up: species or system mouse (B6D2F1); conditions: for Survivors: 30-day; for toxic deaths: at the high dose; for weight loss: at the high dose (MTD); for efficacy vs P388 leukemia: i.p. five day schedule, in words
Experimental: as §7, §8
For the P388 leukemia model, the procedure followed is exactly the same as the aforementioned B16 model. The tumor inoculum is prepared by removing ascited fluid containing P388 cells from tumored B6D2F1 mice, centrifuging the cells, and then resuspending the leukemia cells in saline. Mice receive 1×10^6 P388 cells i.p. on day 0.

[7] = test system: tumor cells; test: MTT growth inhibition across tumor cell lines (P388, P388/CPT, B16, HT-29, MCF-7M); assay type: cell-based; conditions: comparison in words
Experimental: as §3
as §4, with “equation: […]” for “equation:”

[8] = lower dose of 100 mg/kg (so in the source)

Q: For `CC[C@@]1(O)C(=O)OCc2c1cc1n(c2=O)Cc2c-1nc1ccccc1c2CO[C@@H]1C=C[C@H](O[C@H]2O[C@H](CO)[C@@H](O)[C@H](O)[C@H]2O)[C@@H](CO)O1` [HAR6, 7-[4-O-(α-D-glucopyranosyl)-2,3-dideoxy-α-D-erythro-hex-2-enopyranosyl]-oxymethylcamptothecin], which IC50 [1] is on record?
A: Its IC50 is 0.111 µg/mL (≈ 0.166 µM).

Q: And the IC50 [2]?
A: Its IC50 is 2.43 µg/mL (≈ 3.63 µM).

Q: What about the IC50 [3] of the same compound?
A: Its IC50 is 1.68 µg/mL (≈ 2.51 µM).

Q: What about the IC50 [4] of the same compound?
A: Its IC50 is 28.4 µg/mL (≈ 42.5 µM).

Q: What about the “60-day survivors (cures)” value ([5]; 100 mg/kg) of the same compound?
A: Its value is “no cures”.

Q: What about the drug-related deaths ([5]; 100 mg/kg) of the same compound?
A: The drug-related deaths was “one”.

Q: And the “T/C (mean survival treated/control)” value ([5]; 100 mg/kg i.p. daily×5)?
A: Its value is 184%.

Q: And the “Tox Deaths” value ([5]; 100 mg/kg i.p. daily×5)?
A: The value was 1/10.

Q: What about the “ΔWeight (%)” value ([5]; 100 mg/kg i.p. daily×5) of the same compound?
A: Its value is -13.8%.

Q: What about the Survivors ([5]; 100 mg/kg i.p. daily×5) of the same compound?
A: The Survivors was 0/10.

Q: What about the weight loss ([5]; 100 mg/kg i.p. five day schedule) of the same compound?
A: Its weight loss is “approximately 14%”.

Q: What about the “T/C (mean survival treated/control)” value ([5]; 150 mg/kg i.p. daily×5) of the same compound?
A: Its value is 185%.

Q: And the “Tox Deaths” value ([5]; 150 mg/kg i.p. daily×5)?
A: Its value is 7/10.

Q: And the “ΔWeight (%)” value ([5]; 150 mg/kg i.p. daily×5)?
A: Its value is -27.2%.

Q: And the Survivors ([5]; 150 mg/kg i.p. daily×5)?
A: The Survivors was 0/10.

Q: And the “T/C (mean survival treated/control)” value ([6]; 50 mg/kg i.p. daily×5)?
A: Its value is 225%.

Q: And the “Tox Deaths” value ([6]; 50 mg/kg i.p. daily×5)?
A: The value was 0/10.

Q: And the “ΔWeight (%)” value ([6]; 50 mg/kg i.p. daily×5)?
A: The value was -3.5%.

Q: And the Survivors ([6]; 50 mg/kg i.p. daily×5)?
A: Its Survivors is 1/10.

Q: What about the “30-day survivors (cures)” value ([6]; 100 mg/kg) of the same compound?
A: The value was “three”.

Q: What about the “T/C (mean survival treated/control)” value ([6]; 100 mg/kg i.p. daily×5) of the same compound?
A: Its value is 320%.

Q: And the “Tox Deaths” value ([6]; 100 mg/kg i.p. daily×5)?
A: The value was 0/10.

Q: What about the “ΔWeight (%)” value ([6]; 100 mg/kg i.p. daily×5) of the same compound?
A: The value was -12.2%.

Q: What about the Survivors ([6]; 100 mg/kg i.p. daily×5) of the same compound?
A: Its Survivors is 3/10.

Q: And the toxic deaths [6]?
A: Its toxic deaths is “no toxic deaths occurred”.

Q: What about the weight loss [6] of the same compound?
A: Its weight loss is 12%-16.

Q: And the “efficacy vs P388 leukemia” value [6]?
A: Its value is “high, curative efficacy”.

Q: And the T/C [6, 8]?
A: Its T/C is 225%.

Q: And the cures [6, 8]?
A: The cures was “one”.

Q: How did the IC50 [1] turn out when `CC[C@@]1(O)C(=O)OCc2c1cc1n(c2=O)Cc2c-1nc1ccccc1c2CO[C@@H]1C=C[C@H](O)[C@@H](CO)O1` [HAR7, 7-[2,3-dideoxy-α-D-erythro-hex-2-enopyranosyl]-oxymethylcamptothecin] was run?
A: The IC50 was 0.0064 µg/mL (≈ 0.0126 µM).

Q: What about the IC50 [2] of the same compound?
A: Its IC50 is 0.173 µg/mL (≈ 0.342 µM).

Q: What about the IC50 [3] of the same compound?
A: Its IC50 is 0.088 µg/mL (≈ 0.174 µM).

Q: What about the IC50 [4] of the same compound?
A: The IC50 was 18.7 µg/mL (≈ 36.9 µM).

Q: And the cures ([5]; 20 mg/kg)?
A: The cures was “no cures”.

Q: What about the “T/C (mean survival treated/control)” value ([5]; 20 mg/kg i.p. daily×5) of the same compound?
A: Its value is 191%.

Q: What about the “Tox Deaths” value ([5]; 20 mg/kg i.p. daily×5) of the same compound?
A: Its value is 0/10.

Q: And the “ΔWeight (%)” value ([5]; 20 mg/kg i.p. daily×5)?
A: The value was -0.1%.

Q: What about the Survivors ([5]; 20 mg/kg i.p. daily×5) of the same compound?
A: Its Survivors is 0/10.

Q: And the “T/C (mean survival treated/control)” value ([5]; 40 mg/kg i.p. daily×5)?
A: The value was 205%.

Q: What about the “Tox Deaths” value ([5]; 40 mg/kg i.p. daily×5) of the same compound?
A: Its value is 0/10.

Q: What about the “ΔWeight (%)” value ([5]; 40 mg/kg i.p. daily×5) of the same compound?
A: Its value is -7.9%.

Q: And the Survivors ([5]; 40 mg/kg i.p. daily×5)?
A: The Survivors was 1/10.

Q: What about the 60-day survivors ([5]; dose not stated) of the same compound?
A: Its 60-day survivors is “one”.

Q: What about the “T/C (mean survival treated/control)” value ([6]; 20 mg/kg i.p. daily×5) of the same compound?
A: Its value is 192%.

Q: What about the “Tox Deaths” value ([6]; 20 mg/kg i.p. daily×5) of the same compound?
A: The value was 0/10.

Q: And the “ΔWeight (%)” value ([6]; 20 mg/kg i.p. daily×5)?
A: Its value is -1.7%.

Q: And the Survivors ([6]; 20 mg/kg i.p. daily×5)?
A: The Survivors was 0/10.

Q: What about the “T/C (mean survival treated/control)” value ([6]; 40 mg/kg i.p. daily×5) of the same compound?
A: The value was 223%.

Q: What about the “Tox Deaths” value ([6]; 40 mg/kg i.p. daily×5) of the same compound?
A: The value was 0/10.

Q: What about the “ΔWeight (%)” value ([6]; 40 mg/kg i.p. daily×5) of the same compound?
A: Its value is -16.0%.

Q: What about the Survivors ([6]; 40 mg/kg i.p. daily×5) of the same compound?
A: Its Survivors is 3/10.

Q: What about the 30-day survivors ([6]; 40 mg/kg, high dose) of the same compound?
A: Its 30-day survivors is “three”.

Q: What about the toxic deaths [6] of the same compound?
A: The toxic deaths was “no toxic deaths occurred”.

Q: What about the weight loss [6] of the same compound?
A: Its weight loss is 12%-16.

Q: And the “efficacy vs P388 leukemia” value [6]?
A: Its value is “high, curative efficacy; also recorded: excellent activity vs. P388”.

Q: What about the growth inhibitory activity [7] of the same compound?
A: The growth inhibitory activity was “quite similar to those of camptothecin”.
